The results in this text go back to US11072634B2, “Inhibitors of transglutaminases” (Zedira GmbH, priority 2016, dated 2021).

Molecules are shown by their SMILES. pIC50: −log10 of the molar value.

One may read the pIC50 as −log10 of the IC50, conventionally taken in molar units.

The experiment concerns the target T1, recombinant human tissue transglutaminase (rhTG2) (Homo sapiens, UniProt P21980).
T1 construct: purchased Zedira 1022 (so in the source); T022)
T1 sequence (P21980 1-687): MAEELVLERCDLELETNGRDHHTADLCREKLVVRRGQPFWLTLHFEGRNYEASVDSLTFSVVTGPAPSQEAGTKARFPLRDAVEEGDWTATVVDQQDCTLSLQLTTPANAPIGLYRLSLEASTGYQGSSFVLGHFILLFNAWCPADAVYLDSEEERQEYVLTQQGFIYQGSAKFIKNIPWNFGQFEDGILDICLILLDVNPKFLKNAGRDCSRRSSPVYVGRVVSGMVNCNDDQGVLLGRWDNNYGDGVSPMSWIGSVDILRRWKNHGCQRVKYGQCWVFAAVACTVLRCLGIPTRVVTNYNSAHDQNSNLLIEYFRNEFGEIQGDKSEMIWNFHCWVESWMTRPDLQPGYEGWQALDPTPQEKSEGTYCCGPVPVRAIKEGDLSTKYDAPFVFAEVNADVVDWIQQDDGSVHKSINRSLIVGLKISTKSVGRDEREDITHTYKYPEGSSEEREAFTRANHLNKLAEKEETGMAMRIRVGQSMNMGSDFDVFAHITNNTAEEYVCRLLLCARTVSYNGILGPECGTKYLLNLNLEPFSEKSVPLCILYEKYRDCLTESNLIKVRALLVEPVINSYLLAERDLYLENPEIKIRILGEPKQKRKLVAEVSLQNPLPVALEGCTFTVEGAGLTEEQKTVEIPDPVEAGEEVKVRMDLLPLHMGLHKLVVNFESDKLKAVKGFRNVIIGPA
The experiment can be described thus: Inhibition of rec. human tissue transglutaminase (fluorescence, Abz-APE(CAD-DNP)QEA-OH). It is filed as biochemical. Conditions: Table 2, TG2 inhibitors. The procedure:
Method for Inhibition Studies of Rec. Human Tissue Transglutaminase (rhTG2)
250 μg lyophilized His-tagged recombinant human tissue transglutaminase (His6-rhTG2, Zedira product 1022) is reconstituted in H2O (volume depends on original volume before lyophilization) resulting in a buffer containing 10 mM Tris-HCl, 150 mM NaCl, 1 mM EDTA, 5 mM DTT, 189 mg/ml maltodextrin, pH=8.1. The rhTG2 stock solution is diluted in buffer (50 mM Tris-HCl, 7.5 mM CaCl2, 150 mM NaCl, pH=7.4) to give a working solution of 100 U/ml (based on the amine-incorporation activity measured using T036, described below).
A 10 mM inhibitor stock solution is prepared in DMSO, and from this stock solution a serial 1:2-fold dilution series is prepared, also in DMSO. Each of these initial dilutions is subsequently diluted 1:50-fold with buffer (50 mM Tris-HCl, 7.5 mM CaCl2, 150 mM NaCl, pH=7.4) to yield the final working dilutions containing 2% (v/v) DMSO. 15 μl of inhibitor working dilution are added per well of a 96 well microtiter plate. As control, 15 μl of a 2% (v/v) DMSO solution prepared using the buffer mentioned above are added per well.
600 μl of His6-rhTG2 working solution are added to 11.4 ml assay buffer (50 mM Iris-HCl, 7.5 mM CaCl2, 150 mM NaCl, 5 mM DTI, 13.4 mM glycine methylester, 50 μM Abz-APE(CAD-DNP)QEA-OH, (Zedira product A102; patent No.: EP 1781807B1), pH=7.4). From this master-mix solution, 285 μl are added per well containing the inhibitor. Increase in fluorescence is measured using λex=313 nm and λem=418 nm at 37° C. for 20 min. A slope of the increase in fluorescence between 10 and 20 min is calculated for determination of the IC50 value (inhibitor concentration at which 50% of the initial TG2 activity is blocked).
Analysis of enzymatic activity is performed by calculation of the slope of an increase in fluorescence intensity. IC50 values are calculated by plotting the enzymatic activity (as percentage from control containing 2% DMSO instead of inhibitor) against the inhibitor concentration. IC50 is defined as the inhibitor concentration blocking 50%) of initial enzyme activity.
For `CCC(CC)CNC(=O)Cn1cccc(NC(=O)[C@H](CCC(=O)C(N)=O)NC(=O)c2cnccn2)c1=O` [Compound E11, (S)—N1-(1-(2-(2-ethylbutylamino)-2-oxoethyl)-2-oxo-1,2-dihydropyridin-3-yl)-5-oxo-2-(pyrazine-2-carboxamido)hexanediamide], the pIC50 is 6.35.
The value for `CCC(CC)CNC(=O)Cn1cccc(NC(=O)[C@H](CCC(=O)C(N)=O)NC(=O)c2ccccc2)c1=O` [Compound E12, (S)-2-benzamido-N1-(1-(2-(2-ethylbutylamino)-2-oxoethyl)-2-oxo-1,2-dihydropyridin-3-yl)-5-oxonexanediamide] was 6.02.
With `CCC(CC)CNC(=O)Cn1cccc(NC(=O)[C@H](CCC(=O)C(N)=O)NC(=O)c2cc([N+](=O)[O-])ccc2C)c1=O` [Compound E13], the pIC50 was 6.15.
As for `CCC(CC)CNC(=O)Cn1cccc(NC(=O)[C@H](CCC(=O)C(N)=O)NC(=O)c2scnc2C)c1=O` [Compound E14, (S)—N1-(1-(2-(2-ethylbutylamino)-2-oxoethyl)-2-oxo-1,2-dihydropyridin-3-yl)-2-(4-methylthiazole-5-carboxamido)-5-oxohexanediamide], the pIC50 is 6.60.
Regarding `CCC(CC)CNC(=O)Cn1cccc(NC(=O)[C@H](CCC(=O)C(N)=O)NS(=O)(=O)c2cccc3c(N(C)C)cccc23)c1=O` [Compound E15, (S)-2-(5-(dimethylamino)naphthalene-1-sulfonamido)-N1-(1-(2-(2-ethylbutylamino)-2-oxoethyl)-2-oxo-1,2-dihydropyridin-3-yl)-5-oxonexanediamide], the negative-log IC50 (pIC50) was 5.22.
Take `CCNC(=O)C(=O)CC[C@H](NC(=O)c1cncn1C)C(=O)Nc1cccn(CC(=O)NCC(CC)CC)c1=O` [Compound E17, (S)—N1-ethyl-N6-(1-(2-(2-ethylbutylamino)-2-oxoethyl)-2-oxo-1,2-dihydropyridin-3-yl)-5-(1-methyl-1H-imidazole-5-carboxamido)-2-oxonexanediamide]: the pIC50 is 7.00.
With `CCCCCNC(=O)C(=O)CC[C@H](NC(=O)c1cncn1C)C(=O)Nc1cccn(CC(=O)NCC(CC)CC)c1=O` [Compound E18, (S)—N1-(1-(2-(2-ethylbutylamino)-2-oxoethyl)-2-oxo-1,2-dihydropyridin-3-yl)-2-(1-methyl-1H-imidazole-5-carboxamido)-5-oxo-N6-pentylnexanediamide], the pIC50 was 6.90.
The value for `CCC(CC)CNC(=O)Cn1cccc(NC(=O)[C@H](CCC(=O)C(=O)NC2CC2)NC(=O)c2cncn2C)c1=O` [Compound E19, (S)—N1-cyclopropyl-N6-(1-(2-(2-ethylbutylamino)-2-oxoethyl)-2-oxo-1,2-dihydropyridin-3-yl)-5-(1-methyl-1H-imidazole-5-carboxamido)-2-oxonexanediamide] was 6.46; that for `CCC(CC)CNC(=O)Cn1cccc(NC(=O)[C@H](CCC(=O)C(=O)NCc2ccccc2)NC(=O)c2cncn2C)c1=O` [Compound E20, (S)—N1-benzyl-N6-(1-(2-(2-ethylbutylamino)-2-oxoethyl)-2-oxo-1,2-dihydropyridin-3-yl)-5-(1-methyl-1H-imidazole-5-carboxamido)-2-oxonexanediamide] was 6.22; that for `CCC(CC)CNC(=O)Cn1cccc(NC(=O)[C@H](CCC(=O)C(=O)NC(C)(C)C)NC(=O)c2cncn2C)c1=O` [Compound E21, (S)—N1-tert-butyl-N6-(1-(2-(2-ethylbutylamino)-2-oxoethyl)-2-oxo-1,2-dihydropyridin-3-yl)-5-(1-methyl-1H-imidazole-5-carboxamido)-2-oxonexanediamide] was 5.30.
For the compound `CCC(CC)CNC(=O)Cn1cccc(NC(=O)[C@H](CCC(=O)C(=O)NC2CC2)NC(=O)c2ccccc2)c1=O` [Compound E23, (S)-2-benzamido-N6-cyclopropyl-N1-(1-(2-(2-ethylbutylamino)-2-oxoethyl)-2-oxo-1,2-dihydropyridin-3-yl)-5-oxonexanediamide], the pIC50 was 5.96.
In the case of `COC(=O)[C@H](CC(C)C)NC(=O)[C@@H]1CCCN1C(=O)[C@@H](NC(=O)[C@H](CCC(=O)C(=O)NC1CC1)NC(=O)c1ccccc1)C(C)C` [Compound E24, (S)-methyl 2-((S)-1-((S)-2-((S)-2-benzamido-6-(cyclopropylamino)-5,6-dioxonexan-amido)-3-methylbutanoyl)pyrrolidine-2-carboxamido)-4-methylpentanoate], the negative logarithm of the IC50 (pIC50) was 6.26.
In the case of `CCC(CC)CNC(=O)Cn1cccc(NC(=O)[C@H](CCC(=O)C(=O)NCC(=O)OC)NC(=O)c2cncn2C)c1=O` [Compound E38, (S)-methyl 2-(6-(1-(2-(2-ethylbutylamino)-2-oxoethyl)-2-oxo-1,2-dihydropyridin-3-ylamino)-5-(1-methyl-1H-imidazole-5-carboxamido)-2,6-dioxohexanamido)acetat], the pIC50 was 6.15.
The value for `CCC(CC)CNC(=O)Cn1cccc(NC(=O)[C@H](CCC(=O)C(=O)NCOC)NC(=O)c2cncn2C)c1=O` [Compound E39, (S)—N1-(1-(2-(2-ethylbutylamino)-2-oxoethyl)-2-oxo-1,2-dihydropyridin-3-yl)-N6-(methoxymethyl)-2-(1-methyl-1H-imidazole-5-carboxamido)-5-oxohexanediamide] was 6.87.
Turning to `CCC(CC)CNC(=O)Cn1cccc(NC(=O)[C@H](CCC(=O)C(=O)Nc2cncs2)NC(=O)c2cncn2C)c1=O` [Compound E40, (S)—N1-(1-(2-(2-ethylbutylamino)-2-oxoethyl)-2-oxo-1,2-dihydropyridin-3-yl)-2-(1-methyl-1H-imidazole-5-carboxamido)-5-oxo-N6-(thiazol-5-yl)hexanediamide], the pIC50 is 6.30.
Take `CCC(CC)CNC(=O)Cn1cccc(NC(=O)[C@H](CCC(=O)C(=O)NCS(=O)(=O)c2ccc(C)cc2)NC(=O)c2cncn2C)c1=O` [Compound E41, (S)—N1-(1-(2-(2-ethylbutylamino)-2-oxoethyl)-2-oxo-1,2-dihydropyridin-3-yl)-2-(1-methyl-1H-imidazole-5-carboxamido)-5-oxo-N6-(tosylmethyl)hexanediamide]: the pIC50 was 5.84.
Consider `CCC(CC)CNC(=O)Cn1ccc(C)c(NC(=O)[C@H](CCC(=O)C(=O)NC)NC(=O)c2cncn2C)c1=O` [Compound E42, (S)—N1-(1-(2-(2-ethylbutylamino)-2-oxoethyl)-4-methyl-2-oxo-1,2-dihydropyridin-3-yl)-N6-methyl-2-(1-methyl-1H-imidazole-5-carboxamido)-5-oxohexanediamide], for which the pIC50 was 5.80.
The value for `CCC(CC)CNC(=O)Cn1cc(C)cc(NC(=O)[C@H](CCC(=O)C(=O)NC)NC(=O)c2cncn2C)c1=O` [Compound E43, (S)—N1-(1-(2-(2-ethylbutylamino)-2-oxoethyl)-5-methyl-2-oxo-1,2-dihydropyridin-yl)-N6-methyl-2-(1-methyl-1H-imidazole-5-carboxamido)-5-oxohexanediamide] was 7.22; that for `CCC(CC)CNC(=O)Cn1c(C)ccc(NC(=O)[C@H](CCC(=O)C(=O)NC)NC(=O)c2cncn2C)c1=O` [Compound E44, (S)—N1-(1-(2-(2-ethylbutylamino)-2-oxoethyl)-6-methyl-2-oxo-1,2-dihydropyridin-3-yl)-N6-methyl-2-(1-methyl-1H-imidazole-5-carboxamido)-5-oxohexanediamide] was 7.10.
With `CCC(CC)CNC(=O)Cn1cc(Cl)cc(NC(=O)[C@H](CCC(=O)C(=O)NC)NC(=O)c2cncn2C)c1=O` [Compound E45, (S)—N1-(5-chloro-1-(2-(2-ethylbutylamino)-2-oxoethyl)-2-oxo-1,2-dihydropyridin-yl)-N6-methyl-2-(1-methyl-1H-imidazole-5-carboxamido)-5-oxohexanediamide] the figure was 7.12.
